For orientation: IC50 means the concentration that gives 50% inhibition.

SMILES strings stand for the structures. Where a name gives a salt, the structure may show the parent alone.

For 26 molecules, IC50 results are on record in patent US20100056497A1, “AMIDE DERIVATIVE” (DAINIPPON SUMITOMO PHARMA CO., LTD, priority 2007, published 2010).

For the experiment, the target named is T1, Recombinant human renin (Homo sapiens, UniProt P00797).
T1 sequence (P00797 67-406): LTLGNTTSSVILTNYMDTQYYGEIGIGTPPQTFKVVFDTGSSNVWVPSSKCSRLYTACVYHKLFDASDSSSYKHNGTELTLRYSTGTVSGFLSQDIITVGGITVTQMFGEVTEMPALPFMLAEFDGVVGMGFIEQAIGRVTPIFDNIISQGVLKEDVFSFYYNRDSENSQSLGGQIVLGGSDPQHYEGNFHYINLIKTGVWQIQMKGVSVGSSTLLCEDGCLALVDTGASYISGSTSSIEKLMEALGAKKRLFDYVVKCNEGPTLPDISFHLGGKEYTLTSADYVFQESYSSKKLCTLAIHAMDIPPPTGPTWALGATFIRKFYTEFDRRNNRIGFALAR
In words: In vitro renin inhibitory activity assay (fluorescence, FRET peptide substrate). It counts as biochemical. The note with it: 37° C., one hour, substrate 4 μM, pH 7.4. The protocol: In Vitro Renin Inhibitory Activity Assay
Recombinant human renin (50 ng) was reacted in 0.1M BEPES buffer (pH 7.4) containing 0.1M NaCl, 1 mM EDTA and 0.1 mg/mL BSA together with a substrate and a test compound at 37° C. for one hour. As the substrate, Arg-Glu(EDANS)-Ile-His-Pro-Phe-His-Leu-Val-Ile-His-Thr-Lys(DABCYL)-Arg or DABCYL-γ-Abu-Ile-His-Pro-Phe-His-Leu-Val-Ile-His-Thr-EDANS was added in such an amount so that the final concentration thereof became 4 μM. The elevated fluorescence intensity at the exciting wavelength 340 nm and the fluorescence wavelength 500 nm was measured by a fluorescence plate reader. The concentration of a test compound to be needed to inhibit an enzyme activity in the presence of a test compound in plural concentrations by 50% was calculated as an IC50 value.
The amino acid sequence disclosed in Seq ID:1 is an amino acid sequence used in the renin inhibitory activity assay.
The amino acid sequence disclosed in Seq ID:2 is an amino acid sequence used in the renin inhibitory activity assay.
Regarding `CCOC(=O)C[C@H]1CC[C@@H](N(C(=O)c2ccc(OC)c(OCCCOC)c2)C(C)C)CN1` (racemic) [Example 14, Ethyl ((rac.)-(2R,5R)-5-{isopropyl[4-methoxy-3-(3-methoxypropoxy)benzoyl]-amino}piperidin-2-yl)acetate], the IC50 came to 930 nM.
As to `CCCN(CC1CC1)C(=O)C[C@H]1CC[C@@H](N(C(=O)c2ccc(OC)c(OCCCOC)c2)C(C)C)CN1` (racemic) [Example 20, N-((rac.)-(3R,6R)-6-{2-[(Cyclopropylmethyl)(propyl)amino]-2-oxoethyl}piperidin-3-yl)-N-isopropyl-4-methoxy-3-(3-methoxypropoxy)benzamide hydrochloride], the IC50 was 420 nM.
To `CCN(C(=O)C[C@H]1CC[C@@H](N(C(=O)c2ccc(OC)c(OCCCOC)c2)C(C)C)CN1)C(C)C` (racemic) [Example 22, N-((rac.)-(3R,6R)-6-{2-[Ethyl(isopropyl)amino]-2-oxoethyl}piperidin-3-yl)-N-isopropyl-4-methoxy-3-(3-methoxypropoxy)benzamide hydrochloride] belongs 480 nM; to `COCCCOc1cc(C(=O)N(C(C)C)[C@@H]2CC[C@@H](CCN(C(=O)Cc3ccccc3)C3CC3)NC2)ccc1OC` (racemic) [Example 23, N-((rac.)-(3R,6S)-6-{2-[Cyclopropyl(phenylacetyl)amino]ethyl}piperidin-3-yl)-N-isopropyl-4-methoxy-3-(3-methoxypropoxy)benzamide hydrochloride], 330 nM.
The same measure for `COCCCOc1cc(C(=O)N(C(C)C)C2CNC[C@@H](COC(=O)NCCc3ccccc3)C2)ccc1OC` (mixture of isomers) [Example 31, ((rac.)-(3S,5R)-5-{Isopropyl[4-methoxy-3-(3-methoxypropoxy)benzoyl]amino}-piperidin-3-yl)methyl(2-phenylethyl)carbamate hydrochloride]: 240 nM; for `COCCCOc1cc(C(=O)N(C(C)C)C2CNC[C@@H](C(=O)N(C)Cc3ccccc3)C2)ccc1OC` (mixture of isomers) [Example 41, (rac.)-(3S,5R)-N-Benzyl-5-{isopropy[4-methoxy-3-(3-methoxyproroxy)benzoyl]-amino}-N-methylpiperidine-3-carboxamide hydrochloride]: 430 nM; for `COCCCOc1cc(C(=O)N(C(C)C)[C@H]2CNC[C@@H](CNC(=O)OCc3ccccc3)C2)ccc1OC` (racemic) [Example 43, Benzyl [((rac.)-(3S,5R)-5-{isopropyl[4-methoxy-3-(3-methoxypropoxy)benzoyl]-amino}piperidin-3-yl)methyl]carbamate hydrochloride]: 770 nM.
To `COCCCOc1cc(C(=O)N(C(C)C)[C@H]2CNCC[C@@H]2c2ccccc2)ccc1OC` (racemic) [Example 45, N-Isopropyl-4-methoxy-3-(3-methoxypropoxy)-N-[(rac.)-(3R,4R)-4-phenylpiperidin-3-yl]benzamide hydrochloride] belongs 410 nM; to `COCCCOc1cc(C(=O)N(C(C)C)[C@H]2CNC[C@@H](COc3ccccc3-c3ccccc3)C2)ccc1OC` (racemic) [Example 46, N-{(rac.)-(3R,5S)-5-[(Biphenyl-2-yloxy)methyl]piperidin-3-yl}-N-isopropyl-4-methoxy-3-(3-methoxypropoxy)benzamide hydrochloride], 790 nM.
On to `COCCCOc1cc(C(=O)N(C(C)C)[C@H]2CNC[C@@H](COc3cccc(-c4ccccc4)c3)C2)ccc1OC` (racemic) [Example 48, N-{(rac.)-(3R,5S)-5-[(Biphenyl-3-yloxy)methyl]piperidin-3-yl}-N-isopropyl-4-methoxy-3-(3-methoxypropoxy)benzamide hydrochloride], for which the IC50 is 620 nM.
To `COCCCOc1cc(C(=O)N(C(C)C)[C@H]2CNC[C@@H](COc3cccc(Oc4ccccc4)c3)C2)ccc1OC` (racemic) [Example 49, N-Isopropyl-4-methoxy-3-(3-methoxypropoxy)-N-{(rac.)-(3R,5S)-5-[(3-phenoxy-phenoxy)methyl]piperidin-3-yl}benzamide hydrochloride] belongs 740 nM; to `COCCCOc1cc(C(=O)N(C(C)C)[C@H]2CNC[C@@H](COc3cccc(OCc4ccccc4)c3)C2)ccc1OC` (racemic) [Example 50, hydrochloride], 540 nM.
To `COCCCOc1cc(C(=O)N(C(C)C)[C@@H]2CC[C@H](CC(=O)N(C(C)C)C3CCCCC3)NC2)ccc1OC` (racemic) [Example 51, N-((rac.)-(3R,6R)-6-{2-[Cyclohexyl(isopropyl)amino]-2-oxoethyl}piperidin-3-yl)-N-isopropyl-4-methoxy-3-(3-methoxypropoxy)benzamide hydrochloride] belongs 500 nM.
As for `COCCCOc1cc(C(=O)N(C(C)C)[C@@H]2CC[C@H](CC(=O)NC3CC3)NC2)ccc1OC` (racemic) [Example 52, N-{ (rac.)-(3R,6R)-6-[2-(Cyclopropylamino)-2-oxoethyl]piperidin-3-yl)-N-isopropyl-4-methoxy-3-(3-methoxypropoxy)benzamide hydrochloride], the IC50 was 590 nM.
The same measure for `COCCCOc1cc(C(=O)N(C(C)C)[C@@H]2CC[C@H](CCN(C(=O)Cc3ccccc3)C(C)C)NC2)ccc1OC` (racemic) [Example 55, N-Isopropyl-N-((rac.)-(3R,6R)-6-{2-[isopropyl(phenylacetyl)amino]ethyl}piperidin-3-yl)-4-methoxy-3-(3-methoxypropoxy)benzamide hydrochloride]: 690 nM; for `COCCCOc1cc(C(=O)N(C(C)C)[C@H]2CNC[C@H](COC(=O)NC(C)C)C2)ccc1OC` (racemic) [Example 57, ((rac.)-(3R,5R)-5-{Isopropyl[4-methoxy-3-(3-methoxypropoxy)benzoyl]amino}-piperidin-3-yl)methyl isopropylcarbamate hydrochloride]: 830 nM; for `CCN(CCc1ccccc1)C(=O)OC[C@@H]1CNC[C@H](N(C(=O)c2ccc(OC)c(OCCCOC)c2)C(C)C)C1` (racemic) [Example 58]: 150 nM.
The same measure for `CCCN(CCc1ccccc1)C(=O)OC[C@@H]1CNC[C@H](N(C(=O)c2ccc(OC)c(OCCCOC)c2)C(C)C)C1` (racemic) [Example 59]: 110 nM.
For the molecule `COCCCOc1cc(C(=O)N(C[C@@H]2CCNC2)C(C)C)ccc1OC` [Compound B, reference compound], the IC50 came out at 2300 nM.
As for `COCCCOc1cc(C(=O)N(C(C)C)[C@@H]2CCCNC2)ccc1OC` [Example 1, N-Isopropyl-4-methoxy-3-(3-methoxypropoxy)-N-[(3R)-piperidin-3-yl]benzamide hydrochloride], the IC50 turned out to be 330 nM.
The same measure for `COCCCOc1cc(C(=O)N(C(C)C)[C@@H]2CCCNC2)c(C)cc1OC` [Example 27, N-Isopropyl-4-methoxy-5-(3-methoxypropoxy)-2-methyl-N-[(3R)-piperidin-3-yl]-benzamide]: 190 nM; for `COCCCOc1cc(C(=O)N(C(C)C)[C@@H]2CCCNC2)c(Cl)cc1OC` [Example 53, 2-Chloro-N-isopropyl-methoxy-5-(3-methoxypropoxy)-N-[(3R)-piperidin-3-yl]-benzamide hydrochloride]: 220 nM.
To `COCCCOc1cc(C(=O)N(C(C)C)[C@@H]2CC[C@H](CCN(C(=O)CCOC)C3CC3)NC2)ccc1OC` [Example 64, N-((3R,6R)-6-{2-[Cyclopropyl(3-methoxypropanoyl)amino]ethyl}piperidin-3-yl)-N-isopropyl-4-methoxy-3-(3-methoxypropoxy)benzamide hydrochloride] belongs 16.8 nM; to `COCCCOc1cc(C(=O)N(C(C)C)[C@@H]2CC[C@H](CCN(C(=O)CCCO)C3CC3)NC2)ccc1OC` [Example 66, N-((3R,6R)-6-{2-[Cyclopropyl(4-hydroxybutanoyl)amino]ethyl}piperidin-3-yl)-N-isopropyl-4-methoxy-3-(3-methoxypropoxy)benzamide hydrochloride], 61 nM.
On to `COCCCOc1cc(C(=O)N(C(C)C)[C@@H]2CC[C@H](CCN(C(=O)CC(C)(C)O)C3CC3)NC2)ccc1OC` [Example 67, N-((3R,6R)-6-{2-[Cyclopropyl(3-hydroxy-3-methylbutanoyl)amino]ethyl}piperidin-3-yl)-N-isopropyl-4-methoxy-3-(3-methoxypropoxy)benzamide hydrochloride], for which the IC50 was 12.9 nM.
The same measure for `COCCCOc1cc(C(=O)N(C(C)C)[C@@H]2CC[C@H](CCN(C(=O)C=C(C)C)C3CC3)NC2)ccc1OC` [Example 68, N-((3R,6R-6-{2-[Cyclopropyl(3-methyl-2-butenoyl)amino]ethyl}piperidin-3-yl)-N-isopropyl-4-methoxy-3-(3-methoxypropoxy)benzamide hydrochloride]: 6.7 nM.
